Results: PubChem BioAssay (NCI)
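Assay format: 96-well plates, 48-hour exposure. GI50 is the concentration that inhibits growth by half. TGI denotes the concentration required for complete inhibition of growth.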

Assays:
Test in all cases: NCI-60 cell line screen, 48 h
NCI-H23 lung = test system: NCI-H23 lung
SF-268 CNS = test system: SF-268 CNS
SW-620 colon = test system: SW-620 colon
MOLT-4 leukemia = test system: MOLT-4 leukemia
HT29 colon = test system: HT29 colon
HOP-92 NSCLC = test system: HOP-92 NSCLC
SF-539 CNS = test system: SF-539 CNS
RPMI-8226 leukemia = test system: RPMI-8226 leukemia

Structure (SMILES) | TGI (NCI-H23 lung) [µM] | TGI (SF-268 CNS) [µM] | TGI (SW-620 colon) [µM] | TGI (MOLT-4 leukemia) [µM] | TGI (HT29 colon) [µM] | TGI (HOP-92 NSCLC) [µM] | TGI (SF-539 CNS) [µM] | TGI (RPMI-8226 leukemia) [µM] | GI50 (NCI-H23 lung) [µM] | GI50 (HOP-92 NSCLC) [µM] | GI50 (SW-620 colon) [µM] | GI50 (MOLT-4 leukemia) [µM] | GI50 (HT29 colon) [µM] | GI50 (SF-539 CNS) [µM] | GI50 (RPMI-8226 leukemia) [µM]
Cc1cc([N+](=O)[O-])ccc1Nc1cccc(Cl)c1C | 33.3 | 35.8 | 62.7 | 33 | 32 | – | – | – | – | – | – | – | – | – | –
[N-]=[N+]=NC12CC3C4CC5CC3C(C1)C(C5)C4C2 | > 100 | > 100 | > 100 | > 100 | > 100 | > 100 | > 100 | > 100 | – | – | – | – | – | – | –
O=[N+]([O-])c1ccc(C2=Nn3cnnc3SC2)o1 | – | 58.2 | 25.3 | 43.2 | 28.2 | 49.4 | 36.3 | 42.5 | – | – | – | – | – | – | –
COc1cccc(/C=C/c2cc(OC)c(OC)c(OC)c2)c1 | > 100 | > 100 | > 100 | > 100 | > 100 | > 100 | > 100 | > 100 | – | – | – | – | – | – | –
COC(=O)c1cc2c(s1)C(=O)c1ccccc1-2 | > 100 | > 100 | > 100 | > 100 | – | > 100 | > 100 | – | – | – | – | – | – | – | –
S=C(Nc1ccccc1)N(/N=C/C=C/c1ccccc1)c1nnc(-c2ccccc2)c(-c2ccccc2)n1 | > 100 | > 100 | > 100 | > 100 | > 100 | 83.8 | > 100 | > 100 | – | – | – | – | – | – | –
O=C(/C=C/c1ccccc1O)c1ccccc1O | > 100 | > 100 | > 100 | > 100 | > 100 | > 100 | > 100 | > 100 | – | – | – | – | – | – | –
CCC[CH2][Sn]1([CH2]CCC)[O]N=C(c2ccccc2)C(c2ccccc2)[O]1 (stereo not drawn) | 2.64 | – | 2.27 | 6.52 | 5.4 | 2.96 | 3.39 | 4.38 | 1.28 | 1.54 | 0.989 | 1.81 | 2.46 | 1.79 | 0.588
CCCCC(C(=O)C(=O)NC1C2CC3CC(C2)CC1C3)C(=O)C(C)C (stereo not drawn) | > 100 | > 100 | > 100 | > 100 | > 100 | > 100 | > 100 | > 100 | – | – | – | – | – | – | –
COC(=O)C(=Cc1cc(OC)ccc1OC)C(=O)OC | – | > 100 | 55.6 | > 100 | 56.5 | 60 | 65.2 | 92.2 | – | – | – | – | – | – | –
O=C(CCn1[nH]c(=O)c(Cl)c(Cl)c1=O)NO | > 100 | > 100 | > 100 | > 100 | > 100 | – | > 100 | > 100 | – | – | – | – | – | – | –
Cc1ccc(Cc2c(=O)[nH]nc3ccccc23)cc1 | > 100 | > 100 | > 100 | > 100 | > 100 | > 100 | > 100 | > 100 | – | – | – | – | – | – | –
Cc1ccc(S(=O)(=O)N(CC(=O)O)c2ccccc2)cc1 | > 100 | > 100 | > 100 | > 100 | > 100 | > 100 | > 100 | > 100 | – | – | – | – | – | – | –
CC(C)c1ccccc1NC(=O)CCc1n[nH]c(=S)o1 | > 100 | > 100 | > 56 | > 100 | > 100 | > 100 | > 100 | > 72.1 | – | – | – | – | – | – | –
CN(C)c1nc2ccccc2[nH]1 | > 100 | > 100 | > 100 | > 100 | > 100 | > 100 | > 100 | > 100 | – | – | – | – | – | – | –
Cn1c2c(c3ccccc31)C1CCCCCCC1C1C(=O)OC(=O)C21 (stereo not drawn) | > 100 | > 100 | > 100 | 65.8 | > 100 | – | > 100 | 61.2 | – | – | – | – | – | – | –
CCOc1ccccc1C=C1c2ccccc2C(=O)c2ccccc21 | > 100 | > 100 | 41.4 | 29.4 | – | 72.9 | 5.22 | 23.2 | – | – | – | – | – | – | –
CC1=C(C(=O)Nc2ccccc2)C(c2ccccc2)C(C(=O)Nc2ccccc2)=C(C)N1 | > 100 | > 100 | > 100 | > 100 | > 100 | > 100 | > 100 | – | – | – | – | – | – | – | –
CN(C)c1ccc(C(C=C2c3ccccc3Sc3ccccc32)=C(C#N)C#N)cc1 | > 100 | > 100 | > 100 | > 100 | > 100 | – | > 100 | > 100 | – | – | – | – | – | – | –
O=S1(=O)C[C@H](O)[C@H](O)CS1 | > 100 | > 100 | > 100 | > 100 | > 100 | > 100 | > 100 | > 100 | – | – | – | – | – | – | –
Cc1ccc(NC(=O)C(=O)C(C(=O)c2ccc3ccccc3c2)C2OC(=O)c3ccccc32)cc1C (stereo not drawn) | 18 | 52.8 | 63.7 | 25.9 | > 100 | 40.6 | 11.4 | 37.5 | – | – | – | – | – | – | –
Cc1cc(CC(O)c2ccc(Cl)c(Cl)c2)nc(=O)[nH]1 (stereo not drawn) | > 100 | > 100 | > 100 | – | > 100 | 49.5 | – | > 100 | – | – | – | – | – | – | –
